Results from patent US20130012546A1 (priority 2009, published 2013).

Assay: logP(HCOOH) by HPLC
Type: physicochemical
Conditions: HPLC on reversed phase columns, pH 2.7, 0.1% formic acid in water / acetonitrile gradient

In order of falling log p:
1. CC1=C(CC(C)OCC(=O)Nc2cccc(CON=C(c3ccccc3)n3nnnc3C)n2)C1(C)C (centres unmarked) [compound 222]  5.42
2. CCC(OC1CCCCCC1)C(=O)Nc1cccc(CON=C(c2ccccc2)c2nnnn2C)n1 (centres unmarked) [compound 195]  5.27
3. CC1=C(CC(C)OCC(=O)Nc2cccc(CON=C(c3ccccc3)c3nnnn3C)n2)C1(C)C (centres unmarked) [compound 224]  5.14
4. CC1=C(CC(C)OCC(=O)Nc2nc(CON=C(c3ccccc3)n3nnnc3C)cs2)C1(C)C (centres unmarked) [compound 216]  4.91
5. CCC(OC1CCCCC1)C(=O)Nc1cccc(CON=C(c2ccccc2)c2nnnn2C)n1 (centres unmarked) [compound 193]  4.88
6. CC1=C(CC(C)OC(=O)Nc2nc(CON=C(c3ccccc3)n3nnnc3C)cs2)C1(C)C (centres unmarked) [compound 207]  4.86
7. CC1=C(CC(C)OCC(=O)Nc2nc(CON=C(c3ccccc3)c3nnnn3C)cs2)C1(C)C (centres unmarked) [compound 218]  4.83
8. CC1CCCC(OC(C)C(=O)Nc2cccc(CON=C(c3ccccc3)c3nnnn3C)n2)C1 (centres unmarked) [compound 197]  4.81
9. CC1CCC(OC(C)C(=O)Nc2cccc(CON=C(c3ccccc3)c3nnnn3C)n2)CC1 (centres unmarked) [compound 198]  4.81
10. Cn1nnnc1C(=NOCc1csc(NC(=O)OCCCC#C[Si](C)(C)C)n1)c1ccccc1 [compound 228]  4.71
11. CC1=C(CC(C)OC(=O)Nc2nc(CON=C(c3ccccc3)c3nnnn3C)cs2)C1(C)C (centres unmarked) [compound 209]  4.68
12. CCC(OC1CCCC1)C(=O)Nc1cccc(CON=C(c2ccccc2)c2nnnn2C)n1 (centres unmarked) [compound 196]  4.51
13. CC1=C(CC(C)OCC(=O)Nc2cccc(CON=C(c3ccccc3)n3nnnc3C)n2)C1 (centres unmarked) [compound 221]  4.37
14. CC(=NOCC(=O)Nc1cccc(CON=C(c2ccccc2)n2nnnc2C)n1)C(C)(C)C [compound 204]  4.34
15. CC1=C(CC(C)OCC(=O)Nc2cccc(CON=C(c3ccccc3)c3nnnn3C)n2)C1 (centres unmarked) [compound 223]  4.3
16. Cn1nnnc1C(=NOCc1csc(NC(=O)OC2CCc3ccccc3C2)n1)c1ccccc1 (centres unmarked) [compound 211]  4.14
17. CCC(OC1CCC1)C(=O)Nc1cccc(CON=C(c2ccccc2)c2nnnn2C)n1 (centres unmarked) [compound 194]  4.11
18. CC1=C(CC(C)OC(=O)Nc2nc(CON=C(c3ccccc3)n3nnnc3C)cs2)C1 (centres unmarked) [compound 208]  4.11
19. CC1=C(CC(C)OCC(=O)Nc2nc(CON=C(c3ccccc3)n3nnnc3C)cs2)C1 (centres unmarked) [compound 215]  4.11
20. CC1=C(CC(C)OC(=O)Nc2nc(CON=C(c3ccccc3)c3nnnn3C)cs2)C1 (centres unmarked) [compound 210]  4.06
21. CC1=C(CC(C)OCC(=O)Nc2nc(CON=C(c3ccccc3)c3nnnn3C)cs2)C1 (centres unmarked) [compound 219]  4.03
22. Cn1nnnc1C(=NOCc1csc(NC(=O)CC[Si](C)(C)C)n1)c1ccccc1 [compound 227]  4.01
23. CC(=NOCC(=O)Nc1cccc(CON=C(c2ccccc2)n2nnnc2C)n1)c1ccccc1 [compound 202]  3.94
24. Cc1nnnn1C(=NOCc1csc(NC(=O)CC=COc2ccccc2)n1)c1ccccc1 [compound 217]  3.61
25. Cn1nnnc1C(=NOCc1csc(NC(=O)CC=COc2ccccc2)n1)c1ccccc1 [compound 220]  3.57
26. Cn1nnnc1C(=NOCc1csc(NC(=O)CON=C2CCCCC2)n1)c1ccccc1 [compound 200]  3.46
27. CC(C)=NOC(C)C(=O)Nc1cccc(CON=C(c2ccccc2)n2nnnc2C)n1 (centres unmarked) [compound 203]  3.35
28. CC(C)=NOCCOC(=O)Nc1cccc(CON=C(c2ccccc2)c2nnnn2C)n1 [compound 213]  3.11
29. CC=NOCCOC(=O)Nc1cccc(CON=C(c2ccccc2)c2nnnn2C)n1 [compound 214]  2.96

Same assay, conditions: HPLC on reversed phase columns, pH 2.7, 0.1% formic acid in water / acetonitrile, linear gradient 10% to 95% acetonitrile; EEC directive 79/831 Annex V.A8

In order of rising log p:
1. CC(OC1CCC1)C(=O)Nc1nc(CON=C(c2ccccc2)c2nnnn2C)cs1 (centres unmarked) [compound 172]  3.39
2. Cn1nnnc1C(=NOCc1csc(NC(=O)OCCC2CC2)n1)c1ccccc1 [compound 149]  3.46
3. Cc1nnnn1C(=NOCc1csc(NC(=O)C(C)OC2CCC2)n1)c1ccccc1 (centres unmarked) [compound 165]  3.46
4. Cc1nnnn1C(=NOCc1csc(NC(=O)OCCC2CC2)n1)c1ccccc1 [compound 145]  3.5
5. CC(OC1CCC1)C(=O)Nc1cccc(CON=C(c2ccccc2)c2nnnn2C)n1 (centres unmarked) [compound 192]  3.7
6. Cn1nnnc1C(=NOCc1cccc(NC(=O)OCCC2CC2)n1)c1ccccc1 [compound 159]  3.72
7. Cc1nnnn1C(=NOCc1cccc(NC(=O)C(C)OC2CCC2)n1)c1ccccc1 (centres unmarked) [compound 185]  3.74
8. CCC(OC1CCC1)C(=O)Nc1nc(CON=C(c2ccccc2)c2nnnn2C)cs1 (centres unmarked) [compound 174]  3.76
9. Cc1nnnn1C(=NOCc1cccc(NC(=O)OCCC2CC2)n1)c1ccccc1 [compound 155]  3.81
10. CCC(OC1CCC1)C(=O)Nc1nc(CON=C(c2ccccc2)n2nnnc2C)cs1 (centres unmarked) [compound 167]  3.83
11. Cn1nnnc1C(=NOCc1cccc(NC(=O)OCC2CCC2)n1)c1ccccc1 [compound 163]  3.92
12. C=C=CCCCOC(=O)Nc1cccc(CON=C(c2ccccc2)n2nnnc2C)n1 [compound 142]  4.01
13. Cc1nnnn1C(=NOCc1cccc(NC(=O)C(C)OC2CCCC2)n1)c1ccccc1 (centres unmarked) [compound 183]  4.12
14. CCC(OC1CCCC1)C(=O)Nc1nc(CON=C(c2ccccc2)c2nnnn2C)cs1 (centres unmarked) [compound 175]  4.16
15. CCC(OC1CCC1)C(=O)Nc1cccc(CON=C(c2ccccc2)n2nnnc2C)n1 (centres unmarked) [compound 187]  4.2
16. CCC(OC1CCCC1)C(=O)Nc1nc(CON=C(c2ccccc2)n2nnnc2C)cs1 (centres unmarked) [compound 168]  4.24
17. CC(OC(=O)Nc1nc(CON=C(c2ccccc2)c2nnnn2C)cs1)C1CCCC1 (centres unmarked) [compound 152]  4.25
18. Cn1nnnc1C(=NOCc1csc(NC(=O)OCCC2CCCC2)n1)c1ccccc1 [compound 150]  4.26
19. Cc1nnnn1C(=NOCc1csc(NC(=O)OC(C)C2CCCC2)n1)c1ccccc1 (centres unmarked) [compound 148]  4.3
20. Cc1nnnn1C(=NOCc1csc(NC(=O)OCCC2CCCC2)n1)c1ccccc1 [compound 146]  4.33
21. CCC(OC1CCCCC1)C(=O)Nc1nc(CON=C(c2ccccc2)c2nnnn2C)cs1 (centres unmarked) [compound 173]  4.42
22. CC1CCCC(OC(C)C(=O)Nc2nc(CON=C(c3ccccc3)c3nnnn3C)cs2)C1 (centres unmarked) [compound 177]  4.44
23. CC1CCC(OC(C)C(=O)Nc2nc(CON=C(c3ccccc3)c3nnnn3C)cs2)CC1 (centres unmarked) [compound 178]  4.44
24. Cc1nnnn1C(=NOCc1cccc(NC(=O)C(C)OC2CCCCC2)n1)c1ccccc1 (centres unmarked) [compound 182]  4.46
25. CC(OC1CCCCC1)C(=O)Nc1nc(CON=C(c2ccccc2)c2nnnn2C2CC2)cs1 (centres unmarked) [compound 164]  4.53
26. Cc1nnnn1C(=NOCc1csc(NC(=O)C(C)OC2CCCC(C)C2)n1)c1ccccc1 (centres unmarked) [compound 170]  4.53
27. Cc1nnnn1C(=NOCc1csc(NC(=O)C(C)OC2CCC(C)CC2)n1)c1ccccc1 (centres unmarked) [compound 171]  4.53
28. CCC(OC1CCCCC1)C(=O)Nc1nc(CON=C(c2ccccc2)n2nnnc2C)cs1 (centres unmarked) [compound 166]  4.56
29. CC(OC(=O)Nc1nc(CON=C(c2ccccc2)c2nnnn2C)cs1)C1CCCCC1 (centres unmarked) [compound 151]  4.58
30. Cn1nnnc1C(=NOCc1cccc(NC(=O)OCCC2CCCC2)n1)c1ccccc1 [compound 160]  4.61
31. CC(OC(=O)Nc1cccc(CON=C(c2ccccc2)c2nnnn2C)n1)C1CCCC1 (centres unmarked) [compound 162]  4.61
32. CCC(OC1CCCC1)C(=O)Nc1cccc(CON=C(c2ccccc2)n2nnnc2C)n1 (centres unmarked) [compound 188]  4.65
33. Cc1nnnn1C(=NOCc1csc(NC(=O)OC(C)C2CCCCC2)n1)c1ccccc1 (centres unmarked) [compound 147]  4.66
34. Cc1nnnn1C(=NOCc1cccc(NC(=O)OCCC2CCCC2)n1)c1ccccc1 [compound 156]  4.71
35. Cc1nnnn1C(=NOCc1cccc(NC(=O)OC(C)C2CCCC2)n1)c1ccccc1 (centres unmarked) [compound 158]  4.71
36. Cn1nnnc1C(=NOCc1csc(NC(=O)C(OC2CCCCC2)c2ccccc2)n1)c1ccccc1 (centres unmarked) [compound 179]  4.82
37. Cc1nnnn1C(=NOCc1cccc(NC(=O)C(C)OC2CCCCCC2)n1)c1ccccc1 (centres unmarked) [compound 184]  4.86
38. CCC(OC1CCCCCC1)C(=O)Nc1nc(CON=C(c2ccccc2)c2nnnn2C)cs1 (centres unmarked) [compound 176]  4.87
39. CCC(OC1CCCCC1)C(=O)Nc1cccc(CON=C(c2ccccc2)n2nnnc2C)n1 (centres unmarked) [compound 186]  4.91
40. CCC(OC1CCCCCC1)C(=O)Nc1nc(CON=C(c2ccccc2)n2nnnc2C)cs1 (centres unmarked) [compound 169]  4.93
41. CC(OC1CCCCC1)C(=O)Nc1cccc(CON=C(c2ccccc2)c2nnnn2C2CC2)n1 (centres unmarked) [compound 180]  4.93
42. Cc1nnnn1C(=NOCc1cccc(NC(=O)C(C)OC2CCC(C)CC2)n1)c1ccccc1 (centres unmarked) [compound 191]  4.93
43. Cc1nnnn1C(=NOCc1cccc(NC(=O)C(C)OC2CCCC(C)C2)n1)c1ccccc1 (centres unmarked) [compound 190]  4.96
44. CC(OC(=O)Nc1cccc(CON=C(c2ccccc2)c2nnnn2C)n1)C1CCCCC1 (centres unmarked) [compound 161]  4.98
45. Cc1nnnn1C(=NOCc1cccc(NC(=O)OC(C)C2CCCCC2)n1)c1ccccc1 (centres unmarked) [compound 157]  5.08
46. CC(OC1CCCCC1)C(=O)Nc1ccc(Br)c(CON=C(c2ccccc2)c2nnnn2C)n1 (centres unmarked) [compound 181]  5.11
47. Cc1nnnn1C(=NOCc1cccc(NC(=O)OC2CC3CCC2(C)C3(C)C)n1)c1ccccc1 (centres unmarked) [compound 143]  5.3
48. CCC(OC1CCCCCC1)C(=O)Nc1cccc(CON=C(c2ccccc2)n2nnnc2C)n1 (centres unmarked) [compound 189]  5.41
